The text below walks through data of patent publication US20230147993A1, “THIOPHENE COMPOUNDS WITH CYCLIC AMIDES, AND USES THEREOF” (Capulus Therapeutics, LLC, priority 2019, published 2023).

Like-named read-outs stand apart in the source and are kept apart here.

Data set [1] in a line: Stability in human liver microsomes. Format: in vitro ADME. Conditions: 60 min at 37° C., NADPH. On the procedure: (§1) Half-life Human Microsomes: Compounds were evaluated for stability in human liver microsomes. A 10 mM stock solution of the compound being evaluated was prepared in DMSO and diluted with water:acetonitrile (1:1) to a concentration of 1 mM. A working concentration of 100 μM was prepared by further dilution with water:acetonitrile (1:1). To make the preincubation mixture, 2.5 μL of the diluted compound was combined with 75 μL of human liver microsomes at 3.33 mg/mL, and 85 μL of 100 mM potassium phosphate buffer, and this mixture was pre-incubated for 10 min at 37° C. To make the 60 minute mixture without cofactor, 32.5 μL of the preincubation mixture was combined with 17.5 μL of 100 mM potassium phosphate buffer and incubated for 60 min at 37° C. To make the 0 min sample with cofactor (NADPH), 16.25 μL of the preincubation mixture was combined with 200 μL of acetonitrile containing internal standard and 8.75 μL of cofactor (NADPH). To make the incubation mixture, 62 μL of cofactor (2.85 mM) was combined with the remaining incubation mixture, and incubated for 60 min at 37° C. To prepare the sample mixture to be evaluated, 25 μL incubation mixture was combined with 200 μL of acetonitrile containing internal standard and vortexed for 5 min at 1200 rpm, then centrifuged for 10 min at 4000 rpm. The supernatant was diluted 2 fold with water and injected on LC-MS/MS. The sample mixture was evaluated by LC-MS/MS using 10 mM ammonium acetate with 0.1% FA as the aqueous mobile phase, and methanol as the organic mobile phase.
(Liver microsomes are a subcellular fraction often used to study metabolism.)

The subject of another data set is SREBP. As to the kind of experiment: Reporter Screening Assay (SRE-luciferase reporter, HepG2). It counts as cell-based. Conditions: SREBPv1 Reporter cell line HepG2, 24 hours, 0.01 uM to 10 uM, read-out: I: Reporter Screening Assay (Ave EC50 (nM)). On the procedure:
Reporter Screening Assay: This assay was used to evaluate the effect on transcriptional activity SREBP of selected compounds using an SRE-luciferase reporter construct. On day 1, 10,000 cells were seeded in a 96 well (white) plate as per the plate map in Growth media without antibiotics. Cells were incubated at 37° C. for 8 hours. After 8 hours, cells were washed with DPBS for complete removal of FBS. DPBS was completely removed and Growth media was replaced with phenol free treatment medium (90 μl) with different FBS concentrations. The cells were then incubated at 37° C. for 24 hours with varying doses (0.01 uM to 10 uM) of compounds. Then a Luciferase assay was performed.
Reagents for performing Luciferase assay were stored at −20° C. To a tube of lyophilized assay substrate was added 1 mL Substrate Solvent and mixed well. The Substrate tube after reconstitution was covered with aluminum foil so as to keep it protected from light. The assay buffer was thawed to room temperature. To 20 mL Assay Buffer was added 200 µL of reconstituted 100× Substrate and mixed well. The reconstituted substrate as well as the assay solution (buffer + substrate) was protected from light throughout the procedure by keeping it covered with aluminum foil. Using a multi-channel pipette, 100 μL Assay Solution (buffer + substrate) was added directly to each sample well in Plate 1, which was incubated for 30 min (plate was covered with aluminum foil). After 30 min incubation, the plate was read for total luminescence. Each well was read for 2 seconds in a plate luminometer. (Microplate reader Envision Microplate reader from Perkin Elmer). Precaution was taken to incubate plate exactly for 30 min prior to reading on the plate reader.
Reporter Assay Materials: SREBPv1 Reporter cell line: HepG2-#32251. Growth Medium: MEM (Corning 10-010), 10% FBS, 1% GlutaMax (Invitrogen Catalog #35050061), […] (Invitrogen Catalog #A1113803) and 1% Penicillin-Streptomycin (Pen-Strep). Treatment Media: Phenol-free MEM (Invitrogen Catalog #51200-038) and 1% GlutaMax (Invitrogen Catalog #35050061). Luciferase Assay: LightSwitch Luciferase Assay Kit (Catalog #32032). LDH assay: Pierce LDH Cytotoxicity Assay Kit (Catalog #SD249616).
In general terms: A reporter such as luciferase makes a cellular process visible.

The nature of data set [2]: Stability in mouse liver microsomes. Format: in vitro ADME. On the procedure: as §1
Half-life Mouse Microsomes: Compounds were evaluated in mouse liver microsomes following a similar procedure as described above for human liver microsomes. A similar procedure could be used to evaluate compounds in rat liver microsomes.

The test system of the next data set is ACACA. The experiment in a line: Gene expression in HepG2 cells (qPCR), ACACA. Format: cell-based. Conditions: for 48 hours, normalized to β-Actin, relative to mock or vehicle treated cells (ΔΔCT). On the procedure:
Gene Expression: The effect of selected compounds on the gene expression of HepG2 cells was evaluated. HepG2 cells (P2) were seeded in 24 well plate (80,000 cells/well) for RNA extraction and in a 96 well plate (10,000 cells/well) for Cell Titer Glow (CTG). The media used was DMEM and contained 10% FBS. Each compound was evaluated at […] for 48 hours. Two biological replicates per experimental group were evaluated for RNA. For gene analysis, RNA was harvested with RNEasy kit and 20-100 ng used to synthesize cDNA with random primers. Quantitative PCR was performed on 1 pg to 100 ng cDNA for the following genes: ACACA, ACLY, FASN, LSS, PNPLA3. Gene expression levels were normalized with housekeeping gene, β-Actin, and relative expression levels determined using ΔΔCT method comparing treated to mock or vehicle treated cells as a baseline. “Total” gene expression refers to the average of the values of the 5 genes listed above.
A general note: Quantitative PCR measures a nucleic acid by following its amplification.

By EC50 is commonly meant the concentration that produces a half-maximal response. As to `O=C(c1ccc(-c2cc(-c3ccnc(OCC4CC(O)C4)c3)cs2)c(Cl)c1)N1CCC(O)CC1` (stereo not shown) [Compound I-1629118, (3-chloro-4-(4-(2-((3-hydroxycyclobutyl)methoxy)pyridin-4-yl)thiophen-2-yl)phenyl)(4-hydroxypiperidin-1-yl)methanone], the “percent remaining after 60 min in human liver microsomes” value in data set [1] is on record as “+++ (≥60.1 = +++)”. Further, the concentration for a half-maximal effect (EC50) in the data set with SREBP (Homo sapiens) is under 249 nM. Further, the “percent remaining after 60 min in mouse liver microsomes” value in data set [2] is listed as “+++ (≥60.1 = +++)”.
For `O=C(c1ccc(-c2cc(-c3ccnc(C4(CO)CCC4)c3)cs2)c(Cl)c1)N1CCC(O)CC1` [Compound I-1629089, (3-chloro-4-(4-(2-(1-(hydroxymethyl)cyclobutyl)pyridin-4-yl)thiophen-2-yl)phenyl)(4-hydroxypiperidin-1-yl)methanone], the “percent remaining after 60 min in human liver microsomes” value in data set [1] is “+ (0-30 = +)”. Moreover, the EC50 in the data set on SREBP (Homo sapiens) was over 500 nM. Moreover, in data set [2], the “percent remaining after 60 min in mouse liver microsomes” value is on record as “+++ (≥60.1 = +++)”.
For the compound `CC1(O)CCN(C(=O)c2ccc(-c3cc(-c4ccnc(C5(CO)CC5)c4)cs3)c(Cl)c2)CC1` [Compound I-1629069, (3-chloro-4-(4-(2-(l-(hydroxymethyl)cyclopropyl)pyridin-4-yl)thiophen-2-yl)phenyl)(4-hydroxy-4-methylpiperidin-1-yl)methanone], the “percent remaining after 60 min in human liver microsomes” value in data set [1] is “+ (0-30 = +)”. Also, the “A: ACACA, effect of compounds on gene expression of HepG2 cells” value (shortened to “A: ACACA, effect of compounds”) with ACACA is recorded as “+ (>0.751 = +)”. In addition, the concentration giving a half-maximal response (EC50) in the data set on SREBP (Homo sapiens) is over 500 nM. Also, the “percent remaining after 60 min in mouse liver microsomes” value in data set [2] is listed as “+ (0-30 = +)”.
Consider `O=C(c1ccc(-c2cc(-c3ccnc(C4(CO)CC4)c3)cs2)c(Cl)c1)N1CCC(O)CC1` [Compound I-1628961, (3-chloro-4-(4-(2-(1-(hydroxymethyl)cyclopropyl)pyridin-4-yl)thiophen-2-yl)phenyl)(4-hydroxypiperidin-1-yl)methanone], for which, in data set [1], the “percent remaining after 60 min in human liver microsomes” value is on record as “+++ (≥60.1 = +++)”. In addition, the “A: ACACA, effect of compounds” value in the data set with ACACA is reported as “++ (0.31-0.7509 = ++)”. Further, in the data set on SREBP (Homo sapiens), the EC50 is under 249 nM. In data set [2], the “percent remaining after 60 min in mouse liver microsomes” value is “+++ (≥60.1 = +++)”.
On to `CC(C)[C@H](N)C(=O)OC1CCN(C(=O)c2ccc(-c3cc(-c4ccnc(C5(CO)CC5)c4)cs3)c(Cl)c2)CC1` [Compound I-1629122, 1-(3-chloro-4-(4-(2-(1-(hydroxymethyl)cyclopropyl)pyridin-4-yl)thiophen-2-yl)benzoyl)piperidin-4-yl L-valinate], for which, in the data set with SREBP (Homo sapiens), the EC50 was under 249 nM.
Still for that read-out and setting: in the case of `O=C(c1ccc(-c2cc(-c3ccnc4c3OCC(CO)O4)cs2)c(Cl)c1)N1CCC(O)CC1` (racemic) [Compound I-1629181, (3-chloro-4-(4-(3-(hydroxymethyl)-2,3-dihydro-[1,4]dioxino[2,3-b]pyridin-8-yl)thiophen-2-yl)phenyl)(4-hydroxypiperidin-1-yl)methanone] it was under 249 nM.
On to `CC(C)(O)COc1cc(-c2csc(-c3ccc(C(=O)N4CCC(O)CC4)cc3Cl)c2)ccn1` [Compound I-1629101, (3-chloro-4-(4-(2-(2-hydroxy-2-methylpropoxy)pyridin-4-yl)thiophen-2-yl)phenyl)(4-hydroxypiperidin-1-yl)methanone], for which, in data set [1], the “percent remaining after 60 min in human liver microsomes” value was “+++ (≥60.1 = +++)”. Also, the EC50 in the data set on SREBP (Homo sapiens) is over 500 nM. Also, in data set [2], the “percent remaining after 60 min in mouse liver microsomes” value is “+++ (≥60.1 = +++)”.
With `O=C(c1ccc(-c2cc(-c3ccnc(C4CCOC4)c3)cs2)c(Cl)c1)N1CCC(O)CC1` (stereo not shown) [Compound I-1628763, (3-chloro-4-(4-(2-(tetrahydrofuran-3-yl)pyridin-4-yl)thiophen-2-yl)phenyl)(4-hydroxypiperidin-1-yl)methanone], the “percent remaining after 60 min in human liver microsomes” value in data set [1] is “+ (0-30 = +)”. The “A: ACACA, effect of compounds” value in the data set with ACACA is “++ (0.31-0.7509 = ++)”. The EC50 with SREBP (Homo sapiens) was under 249 nM. In addition, the “percent remaining after 60 min in mouse liver microsomes” value in data set [2] was “+++ (≥60.1 = +++)”.
Turning to `CC(C)[C@H](N)C(=O)OCC1(c2cc(-c3csc(-c4ccc(C(=O)N5CCC(O)CC5)cc4Cl)c3)ccn2)CC1` [Compound I-1629123, (l-(4-(5-(2-chloro-4-(4-hydroxypiperidine-1-carbonyl)phenyl)thiophen-3-yl)pyridin-2-yl)cyclopropyl)methyl L-valinate], at SREBP, the EC50 is under 249 nM.
For the compound `O=C(c1ccc(-c2cc(-c3ccnc(OC4CC(CO)C4)c3)cs2)c(Cl)c1)N1CCC(O)CC1` (stereo not shown) [Compound I-1629110, (3-chloro-4-(4-(2-(3-(hydroxymethyl)cyclobutoxy)pyridin-4-yl)thiophen-2-yl)phenyl)(4-hydroxypiperidin-1-yl)methanone], the “percent remaining after 60 min in human liver microsomes” value in data set [1] was “+++ (≥60.1 = +++)”. Moreover, in the data set with SREBP (Homo sapiens), the EC50 is under 249 nM. Also, the “percent remaining after 60 min in mouse liver microsomes” value in data set [2] is “+++ (≥60.1 = +++)”.
`O=C(c1ccc(-c2cc(-c3ccnc(C4(CO)CC4)c3)cs2)c(Cl)c1)N1CC[C@H](O)[C@@H](F)C1` [Compound I-1629121, (3-chloro-4-(4-(2-(l-(hydroxymethyl)cyclopropyl)pyridin-4-yl)thiophen-2-yl)phenyl)((3S,4S)-3-fluoro-4-hydroxypiperidin-1-yl)methanone]: the EC50 in the data set with SREBP (Homo sapiens) was under 249 nM. The “percent remaining after 60 min in mouse liver microsomes” value in data set [2] is listed as “+++ (≥60.1 = +++)”.
Consider `O=C(c1ccc(-c2cc(-c3ccnc(O[C@@H]4CO[C@H]5[C@@H]4OC[C@H]5O)c3)cs2)c(Cl)c1)N1CCC(O)CC1` [Compound I-1629106, (3-chloro-4-(4-(2-(((3R,3aR,6R,6aR)-6-hydroxyhexahydrofuro [3,2-b]furan-3-yl)oxy)pyridin-4-yl)thiophen-2-yl)phenyl)(4-hydroxypiperidin-1-yl)methanone], for which, in data set [1], the “percent remaining after 60 min in human liver microsomes” value was “+++ (≥60.1 = +++)”. For the same compound, the 50% effective concentration (EC50) in the data set with SREBP (Homo sapiens) was under 249 nM. Moreover, in data set [2], the “percent remaining after 60 min in mouse liver microsomes” value is “+++ (≥60.1 = +++)”.
Take `O=C(c1ccc(-c2cc(-c3ccnc(OC4CC(O)C4)c3)cs2)c(Cl)c1)N1CCC(O)CC1` (stereo not shown) [Compound I-1629124, (3-chloro-4-(4-(2-(3-hydroxycyclobutoxy)pyridin-4-yl)thiophen-2-yl)phenyl)(4-hydroxypiperidin-1-yl)methanone]: the EC50 in the data set on SREBP (Homo sapiens) is under 249 nM. For the same compound, in data set [2], the “percent remaining after 60 min in mouse liver microsomes” value is on record as “+++ (≥60.1 = +++)”.
Consider `O=C(c1ccc(-c2cc(-c3ccnc(OC4COC4)c3)cs2)c(Cl)c1)N1CCC(O)CC1` [Compound I-1629100, (3-chloro-4-(4-(2-(oxetan-3-yloxy)pyridin-4-yl)thiophen-2-yl)phenyl)(4-hydroxypiperidin-1-yl)methanone], for which the “percent remaining after 60 min in human liver microsomes” value in data set [1] is listed as “+++ (≥60.1 = +++)”. Besides, in the data set on SREBP (Homo sapiens), the concentration for a half-maximal effect (EC50) is over 500 nM. In data set [2], the “percent remaining after 60 min in mouse liver microsomes” value is “+++ (≥60.1 = +++)”.
